From patent US11208412B2 (DAEGU-GYEONGBUK MEDICAL INNOVATION FOUNDATION, priority 2017, dated 2021)

Assays:
Assay in all cases: Kinase selectivity, DiscoverX scanMAX Kinase assay panel (% control)
Type in all cases: binding
[1] = biological target: T1, kinases of the scanMAX Kinase assay panel (Homo sapiens, UniProt Q9C098); details: DCAMKL3; 1 uM
T1 construct: purchased DiscoverX Co. (contract measurement) scanMAX Kinase assay panel
In short: (§1)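 Each enzyme is treated with drug at 1 uM in DMSO, then signal is scaled between a positive control (0%) and DMSO (100%) to give % control. Kinases with % control under 35% are scored as inhibited.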

[2] = biological target: T2, kinases of the scanMAX Kinase assay panel (Homo sapiens, UniProt P51955); details: NEK2; 1 uM
T2 construct: purchased DiscoverX Co. (contract measurement) scanMAX Kinase assay panel
T2 sequence (P51955 1-445): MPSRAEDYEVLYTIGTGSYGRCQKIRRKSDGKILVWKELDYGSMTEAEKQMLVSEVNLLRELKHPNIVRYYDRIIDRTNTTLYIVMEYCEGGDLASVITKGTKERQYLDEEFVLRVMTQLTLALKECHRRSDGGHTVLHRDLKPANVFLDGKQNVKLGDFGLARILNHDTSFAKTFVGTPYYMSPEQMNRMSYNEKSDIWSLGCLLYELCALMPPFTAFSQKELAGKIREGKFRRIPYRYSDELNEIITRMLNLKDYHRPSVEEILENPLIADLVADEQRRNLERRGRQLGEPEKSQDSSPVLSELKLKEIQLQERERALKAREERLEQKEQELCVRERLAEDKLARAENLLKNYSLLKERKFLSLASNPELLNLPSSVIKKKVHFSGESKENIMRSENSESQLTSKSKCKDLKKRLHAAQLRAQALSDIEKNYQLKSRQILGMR
In short: as §1

[3] = biological target: T3, kinases of the scanMAX Kinase assay panel (Homo sapiens, UniProt P00519, H396P); details: 1 uM
T3 construct: purchased DiscoverX Co. (contract measurement) scanMAX Kinase assay panel
In short: as §1

[4] = biological target: T4, kinases of the scanMAX Kinase assay panel (Homo sapiens, UniProt P51813); details: BMX; 1 uM
T4 construct: purchased DiscoverX Co. (contract measurement) scanMAX Kinase assay panel
T4 sequence (P51813 1-675): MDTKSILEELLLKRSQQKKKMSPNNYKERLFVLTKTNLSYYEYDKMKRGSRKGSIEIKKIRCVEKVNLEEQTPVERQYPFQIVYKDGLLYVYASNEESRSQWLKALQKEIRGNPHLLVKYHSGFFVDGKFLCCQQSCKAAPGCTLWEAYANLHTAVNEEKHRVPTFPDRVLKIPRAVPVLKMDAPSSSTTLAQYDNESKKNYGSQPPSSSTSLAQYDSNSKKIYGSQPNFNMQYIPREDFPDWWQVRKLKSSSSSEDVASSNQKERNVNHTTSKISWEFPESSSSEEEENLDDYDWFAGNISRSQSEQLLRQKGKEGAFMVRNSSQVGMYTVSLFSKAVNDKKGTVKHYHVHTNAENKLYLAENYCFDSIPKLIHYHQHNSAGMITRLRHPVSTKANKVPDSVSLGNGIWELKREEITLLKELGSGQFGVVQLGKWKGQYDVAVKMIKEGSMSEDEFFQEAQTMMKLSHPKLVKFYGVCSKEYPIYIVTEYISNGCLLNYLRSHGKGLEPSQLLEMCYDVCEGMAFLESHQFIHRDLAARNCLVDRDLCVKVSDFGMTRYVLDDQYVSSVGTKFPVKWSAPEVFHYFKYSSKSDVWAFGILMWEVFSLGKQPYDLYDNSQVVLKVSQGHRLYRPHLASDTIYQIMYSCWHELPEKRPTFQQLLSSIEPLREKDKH
In short: as §1

[5] = biological target: T5, kinases of the scanMAX Kinase assay panel (Homo sapiens, UniProt O14976); details: GAK; 1 uM
T5 construct: purchased DiscoverX Co. (contract measurement) scanMAX Kinase assay panel
T5 sequence (O14976 1-1311): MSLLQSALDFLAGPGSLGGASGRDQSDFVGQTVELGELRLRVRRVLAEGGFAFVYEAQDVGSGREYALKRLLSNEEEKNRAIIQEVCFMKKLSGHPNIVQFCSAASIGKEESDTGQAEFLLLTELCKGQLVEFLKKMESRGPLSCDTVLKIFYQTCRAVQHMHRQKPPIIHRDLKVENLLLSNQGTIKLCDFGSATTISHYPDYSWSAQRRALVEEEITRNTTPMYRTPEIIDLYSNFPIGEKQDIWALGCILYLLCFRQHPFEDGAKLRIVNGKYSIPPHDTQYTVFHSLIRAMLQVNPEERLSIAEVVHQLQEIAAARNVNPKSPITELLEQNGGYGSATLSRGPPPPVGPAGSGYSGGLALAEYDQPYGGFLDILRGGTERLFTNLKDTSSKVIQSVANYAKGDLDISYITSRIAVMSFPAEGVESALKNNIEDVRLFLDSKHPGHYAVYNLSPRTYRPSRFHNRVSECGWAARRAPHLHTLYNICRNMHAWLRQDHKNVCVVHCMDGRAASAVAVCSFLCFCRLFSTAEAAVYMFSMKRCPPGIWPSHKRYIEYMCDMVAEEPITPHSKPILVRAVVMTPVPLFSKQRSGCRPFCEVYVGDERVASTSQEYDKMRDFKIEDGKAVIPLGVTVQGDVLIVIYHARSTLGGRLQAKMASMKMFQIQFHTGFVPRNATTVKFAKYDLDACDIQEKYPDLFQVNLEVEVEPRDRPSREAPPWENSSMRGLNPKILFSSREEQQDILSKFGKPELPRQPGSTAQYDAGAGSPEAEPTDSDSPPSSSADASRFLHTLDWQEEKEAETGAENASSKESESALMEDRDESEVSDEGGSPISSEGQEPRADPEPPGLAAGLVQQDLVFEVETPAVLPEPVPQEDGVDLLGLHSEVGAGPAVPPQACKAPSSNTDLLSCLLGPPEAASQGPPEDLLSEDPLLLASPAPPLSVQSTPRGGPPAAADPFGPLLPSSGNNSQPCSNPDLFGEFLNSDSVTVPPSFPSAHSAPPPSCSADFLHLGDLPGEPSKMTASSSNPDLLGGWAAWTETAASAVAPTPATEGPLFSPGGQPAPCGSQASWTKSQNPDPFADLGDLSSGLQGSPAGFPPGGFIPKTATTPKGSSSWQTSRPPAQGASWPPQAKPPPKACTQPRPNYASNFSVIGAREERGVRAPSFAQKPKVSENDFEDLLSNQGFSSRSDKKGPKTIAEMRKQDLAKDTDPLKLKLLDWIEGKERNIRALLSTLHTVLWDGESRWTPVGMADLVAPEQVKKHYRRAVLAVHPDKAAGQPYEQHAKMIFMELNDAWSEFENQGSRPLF
In short: as §1

T1 sequence (Q9C098 whole entry): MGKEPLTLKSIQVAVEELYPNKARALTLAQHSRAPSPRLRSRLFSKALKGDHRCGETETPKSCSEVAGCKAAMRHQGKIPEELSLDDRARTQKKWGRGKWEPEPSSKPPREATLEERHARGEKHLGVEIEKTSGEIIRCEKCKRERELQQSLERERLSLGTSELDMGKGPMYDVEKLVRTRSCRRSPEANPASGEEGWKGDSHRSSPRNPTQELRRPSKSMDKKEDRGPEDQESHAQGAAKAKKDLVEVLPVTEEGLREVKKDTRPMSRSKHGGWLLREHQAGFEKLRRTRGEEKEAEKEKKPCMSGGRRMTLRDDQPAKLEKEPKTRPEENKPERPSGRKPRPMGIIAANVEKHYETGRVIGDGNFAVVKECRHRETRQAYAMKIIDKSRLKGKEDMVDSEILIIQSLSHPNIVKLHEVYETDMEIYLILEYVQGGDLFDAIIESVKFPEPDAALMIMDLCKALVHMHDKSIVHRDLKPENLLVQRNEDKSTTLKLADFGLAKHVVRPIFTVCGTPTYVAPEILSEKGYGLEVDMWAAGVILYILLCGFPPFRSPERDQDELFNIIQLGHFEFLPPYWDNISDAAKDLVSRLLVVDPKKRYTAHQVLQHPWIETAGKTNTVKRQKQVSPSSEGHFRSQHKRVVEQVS

CCNc1nc(Nc2ccc(C(=O)N3CCC(N4CCOCC4)CC3)cc2OC)nc2[nH]cc(C(F)(F)F)c12 [Example 104, (4-((4-(ethylamino)-5-(trifluoromethyl)-7H-pyrrolo[2,3-d]pyrimidine-2-yl)amino)-3-methoxyphenyl)(4-morpholinopiperidine-1-yl)methanone]
remaining binding at 1 µM [1]: 90% | remaining binding at 1 µM [2]: 74% | remaining binding at 1 µM ([3]; ABL1(H396P)-nonphosphorylated): 96% | remaining binding at 1 µM ([3]; ABL1(H396P)-phosphorylated): 74% | remaining binding at 1 µM [4]: 94% | remaining binding at 1 µM [5]: 1%

CNc1nc(Nc2ccc(C(=O)N3CCOCC3)cc2OC)nc2[nH]cc(C#N)c12 [Example 1, 2-((2-methoxy-4-(morpholine-4-carbonyl)phenyl)amino)-4-(methylamino)-7H-pyrrolo[2,3-d]pyrimidine-5-carbonitrile]
remaining binding at 1 µM [1]: 98% | remaining binding at 1 µM [2]: 97% | remaining binding at 1 µM ([3]; ABL1(H396P)-nonphosphorylated): 81% | remaining binding at 1 µM ([3]; ABL1(H396P)-phosphorylated): 94% | remaining binding at 1 µM [4]: 93% | remaining binding at 1 µM [5]: 11%

CC1(Nc2nc(Nc3cnn([C@H]4CCN(C5COC5)C[C@@H]4F)c3Cl)nc3[nH]cc(C#N)c23)CC1 [Example 52, 2-((5-chloro-1-((3S,4S)-3-fluoro-1-(oxetane-3-yl)piperidine-4-yl)-1H-pyrazole-4-yl)amino)((1-methylcyclopropyl)amino)-7H-pyrrolo[2,3-d]pyrimidine-5-carbonitrile]
remaining binding at 1 µM [1]: 91% | remaining binding at 1 µM [2]: 70% | remaining binding at 1 µM ([3]; ABL1(H396P)-nonphosphorylated): 0.55% | remaining binding at 1 µM ([3]; ABL1(H396P)-phosphorylated): 0.9% | remaining binding at 1 µM [4]: 39% | remaining binding at 1 µM [5]: 5.8%
